By EC50 is commonly meant the concentration at which the effect is half-maximal.

The test system of test [1] is MCF-7 cells. The experiment in a line: MTT cytotoxicity assay on breast adenocarcinoma (MCF-7) cells. The class given is cell-based, human. Conditions: for EC50: read-out: MCF-7 EC50 (μM) ± SE; for Selectivity Index (SI), MCF-7: ratio of EC50 against fibroblasts to EC50 against MCF-7 cells. On the procedure:
(§1) The cytotoxic effects of DHA and LA derivatives against the breast cancer cell line (MCF-7) were assessed, with results compared to human dermal fibroblasts (HDFs) as a normal cell line. Both cell lines were provided by the Pasteur Institute of Iran (IPI). The cells were cultured in RPMI medium containing 10% fetal bovine serum (FBS) and 1% antibiotic solution (comprising 10,000 units of penicillin and 10 mg streptomycin in 0.9% NaCl). The cultures were incubated at 37°C with 5% CO2.
(§2) The MTT assay was used as a standard method for evaluating the inhibitory effect of compounds. This colorimetric assay is based on the conversion of yellow MTT (3-[4,5-dimethylthiazol-2-yl]-2,5-diphenyltetrazolium bromide) to purple formazan crystals via enzymatic reduction by NAD(P)H-dependent oxidoreductase enzymes in metabolically active cells ([35]). According to a previously reported method, after 24 hours of incubation of cells (15,000 cells per well), six different concentrations of D1-D8 (6.25 to 200 μM) and L1-L8 (3.125 to 100 μM) were added to the wells, with each concentration performed in triplicate. After 48 hours of incubation, the culture medium was completely removed from the wells. MTT solution, prepared at a concentration of 0.5 mg/mL in phosphate-buffered saline (PBS), was added (100 µL per well) and incubated for 4 hours to allow metabolically active cells to reduce the MTT to insoluble formazan crystals. Subsequently, 100 µL of solubilizing solvent containing 16% sodium dodecyl sulfate (SDS) was added to each well, followed by an additional 2 hours of incubation ([36]). Cell viability was determined using a Cell Imaging Multi-Mode Microplate Reader (Biotek, Cytation 3, USA), measuring absorbance at 570 nm ([37], [38]).

The test system of test [2] is human dermal fibroblasts (HDFs). The experiment in a line: MTT cytotoxicity assay on normal human dermal fibroblasts (HDFs). The following applies: read-out: HDF EC50 (μM) ± SE. The class given is cell-based. On the procedure: as §1, §2
In general terms: Formazan colour is commonly taken as a measure of viable cells.

Test [3] concerns MCF-7 cells. The experiment in a line: Annexin V-FITC/PI flow cytometry, apoptosis and necrosis. The class given is cell-based, human. The following applies: MCF-7, annexin V-FITC/PI staining, ½x, x, 2x EC50. On the procedure: Apoptosis and necrosis were measured using a dead cell apoptosis kit with annexin V-FITC and propidium iodide (PI) (ApoFlowExFITC, Exbio, Czech Republic) according to the manufacturer’s protocol. The MCF-7 cells were cultured as described in the cell culture section (section 3.3.1). […] Cells were collected through trypsinization, rinsed twice with PBS, and then resuspended in 500 μL of binding buffer. The cell suspensions were subsequently incubated with 5 μL of annexin V-FITC and 5 μL of PI for 10 minutes at room temperature in a dark environment. The cells were then assessed immediately using flow cytometry, and the data were analyzed using FlowJo version 7.6.5 (Tree Star, Inc., Ashland, USA).
A distinguishing characteristic of cells undergoing apoptosis is the translocation of phosphatidylserine from the inner to the outer layers of the plasma membrane, which can be identified by annexin V in this assay. The PI identifies necrotic cells with compromised plasma membranes ([39]-[44]).
On the technique in general: A flow cytometer gives signals particle by particle.

The next test relates to MCF-7 breast cancer cell. On the set-up: method as in PMID 31652764. The following applies: MCF-7, MTT assay, 150 μM DHA; cited from earlier work.
[4] abbreviates: Homo sapiens, MCF7, MTT, 48 h incubation, MCF-7.
[5] abbreviates: Fibroblast, MTT, 48 h incubation, normal human dermal fibroblasts.

Where two headings read alike, the source gives them in different places.

As for “4-((4Z,7Z,10Z,13Z,16Z,19Z)-docosa-4,7,10,13,16,19-hexaen-1-yl)morpholine [Compound D3]”, the half-maximal effective concentration (EC50) in the test on MCF-7 cells [1] (MTT, 48 h incubation, MCF-7) is 16 ± 2.89 µM; in test [2] (MTT, 48 h incubation, normal human dermal fibroblasts), above 100 µM. Also, the “mode of cell death” value with MCF-7 cells [3] is listed as “predominantly induced apoptosis rather than necrosis”.
For the compound `CC/C=C\C/C=C\C/C=C\C/C=C\C/C=C\C/C=C\CCC(=O)NCCO` [Compound D1, (4Z,7Z,10Z,13Z,16Z,19Z)-N-(2-hydroxyethyl) docosa-4,7,10,13,16,19-hexaenamide], the EC50 with MCF-7 cells [1] (Homo sapiens, MCF7, 48 h) is at least 100 µM; in test [2] (Homo sapiens, Fibroblast, 48 h) it was at least 100 µM.
On to `CC/C=C\C/C=C\C/C=C\C/C=C\C/C=C\C/C=C\CCC(=O)N(CCO)CCO` [Compound D2, (4Z,7Z,10Z,13Z,16Z,19Z)-N,N-bis(2-hydroxyethyl)docosa-4,7,10,13,16,19-hexaenamide], for which the values for the EC50 (with MCF-7 cells [1] (setting [4]); in test [2] (setting [5])) were at least 100 µM and above 100 µM, respectively.
With `CC/C=C\C/C=C\C/C=C\C/C=C\C/C=C\C/C=C\CCC(=O)Nc1ccc(O)cc1` [Compound D4, (4Z,7Z,10Z,13Z,16Z,19Z)-N-(4-hydroxyphenyl)docosa-4,7,10,13,16,19-hexaenamide], the EC50 in the test on MCF-7 cells [1] (setting [4]) was 74.3 ± 1.41 µM; in test [2] (setting [5]), above 100 µM.
Turning to `CC/C=C\C/C=C\C/C=C\C/C=C\C/C=C\C/C=C\CCC(=O)NCCc1ccccc1` [Compound D5, (4Z,7Z,10Z,13Z,16Z,19Z)-N-phenethyldocosa-4,7,10,13,16,19-hexaenamide], in the test on MCF-7 cells [1] (setting [4]), the EC50 was at least 100 µM.
As for `CC/C=C\C/C=C\C/C=C\C/C=C\C/C=C\C/C=C\CCC(=O)N1CCN(C)CC1` [Compound D6, (4Z,7Z,10Z,13Z,16Z,19Z)-1-(4-methylpiperazin-1-yl) docosa-4,7,10,13,16,19-hexaen-1-one], in the test with MCF-7 cells [1] (setting [4]), the EC50 was at least 100 µM.
For the compound `CC/C=C\C/C=C\C/C=C\C/C=C\C/C=C\C/C=C\CCC(=O)NCC(O)CO` (stereo not shown) [Compound D7, (4Z,7Z,10Z,13Z,16Z,19Z)-N-(2,3-dihydroxypropyl) docosa-4,7,10,13,16,19-hexaenamide], the values for the EC50 (in the test on MCF-7 cells [1] (setting [4]); in test [2] (setting [5])) were 98.6 ± 1.19 µM and above 100 µM, respectively.
For `CC/C=C\C/C=C\C/C=C\C/C=C\C/C=C\C/C=C\CCC(=O)NCCN` [Compound D8, (4Z,7Z,10Z,13Z,16Z,19Z)-N-(2-aminoethyl) docosa-4,7,10,13,16,19-hexaenamide], the values for the EC50 (with MCF-7 cells [1] (setting [4]); in test [2] (setting [5])) were 86 ± 5.41 µM and above 100 µM, respectively.
As for `CCCCC/C=C\C/C=C\CCCCCCCC(=O)NCCO` [Compound L1, (9Z,12Z)-N-(2-hydroxyethyl) octadeca-9,12-dienamide], the EC50 in the test on MCF-7 cells [1] (setting [4]) was at least 100 µM.
As for `CCCCC/C=C\C/C=C\CCCCCCCC(=O)N(CCO)CCO` [Compound L2, (9Z,12Z)-N,N-bis(2-hydroxyethyl) octadeca-9,12-dienamide], the EC50 with MCF-7 cells [1] (setting [4]) was at least 100 µM.
As to `CCCCC/C=C\C/C=C\CCCCCCCC(=O)N1CCOCC1` [Compound L3, (9Z,12Z)-1-morpholinooctadeca-9,12-dien-1-one], the EC50 is 24.6 ± 1.81 µM with MCF-7 cells [1] (setting [4]) and at least 100 µM in test [2] (setting [5]). For the same compound, the “Selectivity Index (SI), MCF-7” value in the test with MCF-7 cells [1] amounted to 6.88. Further, the “mode of cell death” value with MCF-7 cells [3] is recorded as “predominantly induced apoptosis rather than necrosis”.
On to `CCCCC/C=C\C/C=C\CCCCCCCC(=O)Nc1ccc(O)cc1` [Compound L4, (9Z,12Z)-N-(4-hydroxyphenyl) octadeca-9,12-dienamide], for which the EC50 was 52.4 ± 6.79 µM in the test on MCF-7 cells [1] (setting [4]) and at least 100 µM in test [2] (setting [5]). Also, in the test with MCF-7 cells [1], the “Selectivity Index (SI), MCF-7” value is 3.53.
In the case of `CCCCC/C=C\C/C=C\CCCCCCCC(=O)NCC(O)CO` (stereo not shown) [Compound L7, (9Z,12Z)-N-(2,3-dihydroxypropyl) octadeca-9,12-dienamide], the EC50 with MCF-7 cells [1] (setting [4]) worked out at 19.2 ± 2.93 µM; in test [2] (setting [5]), 64.8 ± 5.72 µM. Also, the “Selectivity Index (SI), MCF-7” value with MCF-7 cells [1] was determined as 3.37. In addition, in the test on MCF-7 cells [3], the “mode of cell death” value is recorded as “predominantly induced apoptosis rather than necrosis”.
As for `CC/C=C\C/C=C\C/C=C\C/C=C\C/C=C\C/C=C\CCC(=O)O` [DHA, docosahexaenoic acid], in the test on MCF-7 breast cancer cell, the cell viability entry is recorded as “significantly reduced”.
As for `N.N.[Cl][Pt][Cl]` [cisplatin, reference compound], the EC50 in the test with MCF-7 cells [1] (MTT, 48 h incubation, MCF-7) is 0.85 µM. The “Selectivity Index (SI), MCF-7” value with MCF-7 cells [1] is listed as 1.18.

The values are drawn from publication PMC12297039, “Design, Synthesis, and Evaluation of Cytotoxic Effects of Functional Fatty Acid Derivatives as Potential Antineoplastic Agents for Breast Cancer” (Iranian Journal of Pharmaceutical Research : IJPR, 2025).
